Results: patent US10143688B2, “Mesylic acid salt of acylthiourea compound, crystal of the same, and process for producing these” (priority 2015, dated 2018)

How the values were obtained:
[1] = Solubility measurement (solubility measuring method of The Japanese Pharmacopoeia); details: 37° C.
[2] = Solid stability test (purity by liquid chromatography, XRD, TG-DTA after storage); format: physicochemical; details: 1 month at 40° C. (open system), 40° C. (humidity, 75%), or 60° C. (open system)
Procedure: An examination by liquid chromatography was made under the following test conditions.
Apparatus: Hitachi L-2455
Mobile phase A: 10 mM aqueous Na2HPO4 solution (pH, 6.5)
Mobile phase B: acetonitrile
Column: GL Science Inertsil ODS-3; 4.6×150 mm; S=5 μm
Measuring wavelength: 220 nm
(open system), 40° C. (humidity, 75%), or 60° C. (open system). Thereafter, the crystals were examined for purity by liquid chromatography. As a result, the change in purity through the test was 0.1% or less under all those conditions.

## CNC(=O)c1cc2c(Oc3ccc(NC(=S)NC(=O)Cc4ccccc4)cc3F)ccnc2cc1OC.CS(=O)(=O)O [Example 1, mesylic acid salt of 4-(2-fluoro-4-(3-(2-phenylacetyl)thioureido)phenoxy)-7-methoxy-N-methylquinoline-6-carboxamide]
[1]; 20-mM aqueous taurocholic acid solution
  Solubility, Taurocholic acid: 0.12 mg/mL
[1]; FeSSIF
  Solubility, FeSSIF: 0.011 mg/mL
[1]; dissolution-test second liquid according to The Japanese Pharmacopoeia
  Solubility, Dissolution-test second liquid: 0.001 mg/mL
[1]; purified water
  Solubility, Purified water: 0.035 mg/mL
[2]
  change in examinations by XRD and TG-DTA: no marked change
[2]; all those conditions
  change in purity through the test: ≤ 0.1%
